Converted amounts (≈) assume the structure as drawn.
Columns and labels:
[1] = system: carrageenan rat paw edema; assay: Rat Paw Edema Assay, Oral Dosing; format: in vivo; conditions: 4 h, 100 mg/kg oral, four hours after drug, read-out: % Difference from Control
Experimental: (§1) The anti-inflammatory activity of representative compounds of this invention was determined by the rat paw edema assay both by local administration (Table XI below) and by oral dosing (Table XII below). For the oral dosing, the procedure of C. A. Winter, E. A. Risley and G. W. Nuss, Proc. Soc. Exp. Biol. Med. III, 544 (1962) was employed with measurement taken four hours after the drug was administered. The local administration tests were carried out similarly except the irritant (carrageenan) and the test compound were injected simultaneously at time zero.
(§2) Tables XI and XII report the anti-inflammatory activity of the compounds tested as % difference in the edema or swelling as compared with the control. These Tables also give the response in many instances of more than one dose level of the same drug.

[2] = system: Trichophyton mentagrophytes; assay: Antifungal activity, agar dilution method; format: cell-based, Trichophyton mentagrophytes (ATCC No. 8757 and 9129); conditions: T. mentagrophytes, read-out: Parts Per Million Inhibitions of T. mentagrophytes
Experimental: (§3) various compounds of this invention display antifungal and anti-yeast activity.
(§4) In Table IX below are listed the antifungal activity of a number of compounds encompassed in the present invention. These were determined by the agar dilution method as described in Chapters 2 and 3 of Methods in Microbiology, Vol. 7B, edited by J. R. Norris and D. W. Ribbons, Academic Press, New York, 1972.

[3] = system: Candida tropicalis; assay: Antifungal activity, agar dilution method; format: cell-based; conditions: C. tropicalis, read-out: Parts Per Million Inhibitions of C. tropicalis
Experimental: as §3, §4

[4] = system: Trichophyton ajelloi; assay: Antifungal activity, agar dilution method; format: cell-based; conditions: Arthroderma uncinatum, T. ajelloi, read-out: Parts Per Million Inhibitions of T. ajelloi
Experimental: as §3, §4

[5] = system: Candida albicans; assay: Antifungal activity, agar dilution method; format: cell-based, Candida albicans (ATCC No. 10231); conditions: C. albicans, read-out: Parts Per Million Inhibitions of C. albicans
Experimental: as §3, §4

[6] = system: humeral or antibody response; assay: hemolysin test in mice; format: in vivo; conditions: Mus musculus, sc, dose reducing antibody activity by 50% vs control, read-out: HL(ED50)
[7] = system: cell-mediated immune response to the antigen, Mycobacterium tuberculosis H37Ra; assay: delayed hypersensitivity test; format: in vivo, mouse; conditions: Mus musculus, sc; mice; dose reducing edema of cell-mediated immune response by 60% vs control; read-out: D.H.S. (ED60)
Experimental: The immunosuppressant activities of the compounds of this invention were determined via the hemolysin test in mice and by the delayed hypersensitivity test. The hemolysin test used is that described in Methods in Immunology, edited by D. H. Campbell et al, W. A. Benjamin, New York 1963 pages 172-175, and measures humeral or antibody response. The delayed hypersensitivity test measures the effect of a test compound on the ability of a subject mouse to mount a cell-mediated immune response to the antigen, Mycobacterium tuberculosis H37Ra. The mouse is sensitized to the antigen by subcutaneous administration in the base of the tail. The development of the delayed hypersensitivity response may be measured at any time beginning six days after sensitization but is usually done on the ninth day as follows: The right hind paw is injected with purified protein derivative (tuberculin) while the left hind paw (control) receives physiological saline. Both paw volumes are measured after twenty-four hours and significant increase in the volume of the right hand paw is taken as a measure of an effective delayed hypersensitivity response. All compounds were administered by the subcutaneous route.
The D.H.S. (ED60) mg./kg. s.c. value appearing in column 3 is an expression of the effectiveness of the drug in reducing the edema that accompanies the cell-mediated immune response. It is a measure of the number of milligrams per kilogram of body weight of the drug administered subcutaneously which is required to reduce the edema of the cell-mediated immune response by 60% when compared to the control.

[8] = system: carrageenan rat paw edema; assay: Rat Paw Edema Assay, Local Administration; format: in vivo; conditions: read-out: % Difference from Control
Experimental: as §1, §2

[9] = system: Trichophyton rubrum; assay: Antifungal activity, agar dilution method; format: cell-based, Trichophyton rubrum (ATCC No. 10218 and 14001); conditions: T. rubrum, read-out: Parts Per Million Inhibitions of T. rubrum
Experimental: as §3, §4

[10] = system: immune response; assay: immunosuppressant activity (general statement); format: in vivo, mice; conditions: statement in words
[11] = system: Aspergillus niger; assay: Antifungal activity, agar dilution method; format: cell-based, Aspergillus niger (ATCC No. 16404); conditions: A. niger, read-out: Parts Per Million Inhibitions of A. niger
Experimental: as §3, §4

Structure (SMILES) | change in vivo at 100 mg/kg [1] | MIC [2] | MIC [3] | MIC [4] | MIC [5] | ED50 [6] | ED60 [7] | change in vivo at 0.001 mg ([8]; 1 μg, injected directly into paw) | change in vivo at 0.01 mg ([8]; 10 μg, injected directly into paw) | change in vivo at 0.1 mg ([8]; 100 μg, injected directly into paw) | MIC [9] | immunosuppressant activity [10] | change in vivo at 100 mg/kg ([8]; 100 mg/kg, local administration) | MIC [11]
O=C(Nc1ccccc1-n1ccnc1)c1ccc(-c2ccccc2)cc1 [Compound 40] | -43% | 100 µg/mL (≈ 295 µM) | 100 µg/mL (≈ 295 µM) | 100 µg/mL (≈ 295 µM) | 100 µg/mL (≈ 295 µM) |  |  |  |  |  |  |  |  | 
c1ccc2c(c1)ncc1nccn12 [Compound 109, imidazo[1,2-a]quinoxaline, reference compound] | -17% | 128 µg/mL (≈ 757 µM) |  |  |  | > 50 mg/kg | > 50 mg/kg | -30.8% | -3.9% | 31.6% | 32 µg/mL (≈ 189 µM) | lacks immunosuppressant activity |  | 
Cc1nc2ccccc2n2ccnc12 [Compound 110] | -43% | 128 µg/mL (≈ 699 µM) |  |  |  |  | 50 mg/kg |  |  |  | 64 µg/mL (≈ 349 µM) |  | -74% | 128 µg/mL (≈ 699 µM)
CCCCc1nc2ccccc2n2ccnc12 [Compound 113] |  | 100 µg/mL (≈ 444 µM) | 100 µg/mL (≈ 444 µM) |  | 100 µg/mL (≈ 444 µM) |  |  |  |  |  |  |  |  | 
c1ccc(Cc2nc3ccccc3n3ccnc23)cc1 [Compound 124] |  | 100 µg/mL (≈ 386 µM) | 100 µg/mL (≈ 386 µM) | 100 µg/mL (≈ 386 µM) | 100 µg/mL (≈ 386 µM) |  |  |  |  |  | 8 µg/mL (≈ 30.9 µM) |  |  | 
C1=CCC(c2nc3ccccc3n3ccnc23)CC1 (stereo not shown) [Compound 130] |  | 100 µg/mL (≈ 401 µM) | 100 µg/mL (≈ 401 µM) | 100 µg/mL (≈ 401 µM) | 100 µg/mL (≈ 401 µM) |  |  |  |  |  |  |  |  | 
c1ccc(-c2nc3ccccc3n3ccnc23)cc1 [Compound 131, 4-phenylimidazo[1,2-a]quinoxaline, reference compound] | -52% | 16 µg/mL (≈ 65.2 µM) |  |  |  | 18 mg/kg | 81 mg/kg |  |  |  | 2 µg/mL (≈ 8.15 µM) | only minor activity |  | 
Cc1cccc(-c2nc3ccccc3n3ccnc23)c1 [Compound 133] | -17% | 8 µg/mL (≈ 30.9 µM) | 100 µg/mL (≈ 386 µM) | 8 µg/mL (≈ 30.9 µM) | 100 µg/mL (≈ 386 µM) | 0.75 mg/kg | 32 mg/kg |  |  |  | 8 µg/mL (≈ 30.9 µM) |  |  | 

From patent publication US4160097A, “1-(2-Phenylureylene)imidazoles” (Westwind Pharmaceuticals, Inc., priority 1977, dated 1979)
